Experimental findings from PMC4580987, “Catalytic site inhibition of insulin-degrading enzyme by a small molecule induces glucose intolerance in mice” (Nature Communications, 2015) are described below.

One data set has as its system isolated mouse islets. The conditions noted are these: 3 or 10 µM. How it is done: Digestion was stopped by addition of cold HBSS with 10% FCS. The islets were washed twice in HBSS with FCS and once in RPMI with FCS. […] The next day, the islets were incubated in fresh DMEM with 10% FCS without glucose for 90 min. Then glucose at 2.8 mM together with BDM44378 was added; after 1 h, the supernatant was removed and replaced by fresh medium with 28 mM glucose, followed by another 1-h incubation in the presence or absence of inhibitor.

The nature of data set [1]: Pharmacokinetics in mice, intraperitoneal. It is filed as in vivo. The conditions noted are these: C57Bl6/N, mouse, plasma, 30 mg kg^−1, ip, male mice. How it is done:
Three mice per time point were anesthetized with isoflurane and aliquots taken from the retroorbital sinus using sampling heparinated tubes (4 °C) at 10, 20, 30 min, 1, 2 and 4 h after administration of a single dose of ligands. The blood samples were centrifuged (5,000g, 15 min) for plasma separation. Plasma samples were thawed on ice. Aliquots of 50 μl were precipitated with 450 μl of ice-cold acetonitrile containing (R)-N-[3-(1-Hydroxycarbamoylmethyl-2-naphthalen-2-yl-ethyl)-3H-[1,2,3]triazol-4-ylmethyl]-benzamide (0.5 μM) used as internal standard. The samples were vigorously mixed with a vortex and centrifuged at 10,000 r.p.m. at 4 °C for 10 min, and the supernatants were transferred into tubes for LC−MS−MS analysis (Supplementary Table 2). Spiked standard solutions (10, 50, 100, 500, 1,000, 5,000, 10,000 and 50,000 nM) were prepared the same way. The protocol was approved by the ethical comitee CEEA Nord Pas de Calais (CEEA75).

Values joined by “and” are separate entries in the source; they are usually repeats but may differ in a detail not shown here. Equal entries are not always repeated.

As usually defined, the Tmax is the time from dosing to the highest level. As a reminder, the half-life is the time needed for the level to fall by half in the phase considered. A lower half-life goes with fast loss. Usually Cmax stands for the highest concentration seen after dosing. As for `O=C(C[C@@H](Cc1ccc2ccccc2c1)n1cc(CNC(=O)c2ccc(F)cc2)nn1)NO` [Compound 1], in the data set on isolated mouse islets (islets from Ide−/− mice), the “insulin in the supernatant of islets, Ide−/−” value was “did not respond”. In addition, the “insulin detectable in the supernatant of islets, wild-type” value in the data set with isolated mouse islets (islets from wild-type C57BL/6J mice, 2.8 and 28 mM glucose) is listed as “increased, in a dose-dependent manner”. In data set [1], the Tmax turned out to be 10 min and the half-life came to 80 min. The AUC(0-t) in data set [1] (read-out: AUC0→4h) amounted to 4270 ng·h/mL. Also, in data set [1] (DMSO solution), the Cmax was 4100 ng/mL and 9.2 µM.
